pIC50: −log10 of the molar value.
Tests used:
[1] = molecular target: T1, IL-1β protease (Homo sapiens, UniProt P29466); test: In vitro IL-1β protease inhibition (HPLC, TRITC-AYVHDAPVRS-NH2 substrate); assay type: biochemical; conditions: 15 min preincubation, 60 min at 37° C., 67 μM substrate
T1 sequence (P29466 120-297 limits assumed): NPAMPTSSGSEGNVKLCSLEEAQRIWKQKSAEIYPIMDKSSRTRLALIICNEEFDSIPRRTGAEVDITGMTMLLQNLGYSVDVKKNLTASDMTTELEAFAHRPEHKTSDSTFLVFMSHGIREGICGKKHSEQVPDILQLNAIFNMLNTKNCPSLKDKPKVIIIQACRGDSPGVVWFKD
Method: Compounds of the present invention were tested for IL-1β protease inhibition activity according to the following protocols:
Partially purified IL-1β protease is stored at -80° C., thawed on ice, and preincubated for 10 minutes at 37° C. with 2.5 mM dithiothreitol in a buffer solution containing 10 mM Tris-HCl (pH 8.0) and 25% (v/w) glycerol. Inhibitors are prepared as stock solutions in dimethyl sulfoxide (DMSO). The protease is preincubated with inhibitor in a volume of 20 μL in a 1.5 mL polypropylene microcentrifuge tube for 15 minutes at 37° C. The volume of compound added to the assay is adjusted to yield a DMSO concentration in the preincubation of <15% (v/v). The enzyme assay is then initiated by the addition of substrate (TRITC-AYVHDAPVRS-NH2) (SEQ I.D. No. 1) [drawing 5] to yield a final concentration of 67 μM in a final volume of 30 μL. The reaction are carried out for 60 minutes at 37° C. in the dark and are terminated by the addition of […] (TFA). Following the addition of 115 μL of 0.1 % TFA, the samples are analyzed by high pressure liquid chromatography using a reverse phase (C18) column and elution with an acetonitrile/water/TFA gradient. Substrate and product are monitored by their absorbance at 550 nm and elute at 4.2 and 5.2 minutes, respectively.

[2] = tested on: release of mature IL-1β, human monocytes; test: "In vivo" human monocyte pulse chase assay, inhibition of release of mature IL-1β; assay type: cell-based; conditions: fixed S. aureus stimulation, 2-3 donors
Method: In vivo inhibition (IC50) was determined as follows:
Human monocytes were isolated from heparinized leukopheresis units obtained through Biological Specialty Corporation (Lansdale, Pa.). Monocytes were purified by Ficoll-Hupaque (Pharmacia Fine Chemicals, Piscataway, N.J.) gradient centrifugation and more than 95% pure monocyte populations obtained by centrifugal elutriation. The assay was performed on duplicate samples of freshly isolated human monocytes, cultured in suspension at 37° C. and rotated gently in conical bottom polypropylene tubes (Sardstedt Inc., Princeton, N.J.). Human monocytes at a concentration of 5×10^6 cells/mL were resuspended in 1 mL of RPMI 1640 (a common tissue buffer from M.A. Bioproducts, Walkersville, Md.) containing 1% fetal calf serum (FCS) (HyClone, Logan, Utah) and 50 μg/mL gentamycin (Gibco, Grand Island, N.Y.). The cells were treated either with a compound of the invention (i.e. test compound) or with a non-inhibitor (control compound, typically 0.03% DMSO) for 15 minutes and then activated with 0.01% fixed Staphylococcus aureus (The Enzyme Center, Malden, Mass.) for 1 hour. […]
In the monocyte pulse chase assay, each test parameter was run in duplicate. […] When test compounds were evaluated, the percent inhibition of release of mature IL-1β was calculated as follows: […]

[3] = tested on: chronic myelogenous leukemia cells; conditions: cells removed from leukemia patients (CML); cited from earlier work
[4] = tested on: colon; conditions: ulcerative colitis model; cited from earlier work
[5] = tested on: rats; conditions: PG-APS model of arthritis in rats; cited from earlier work
[6] = tested on: Patients with Rheumatoid Arthritis; conditions: small open-label human trial; cited from earlier work
[7] = tested on: Acute Myelogenous Leukemia Blast; conditions: AML; cited from earlier work

Row | Molecule | pIC50 [1] | pIC50 [2] | inhibition of colony growth [3] | tissue necrosis and number of inflammatory cells in the colon [4] | joint swelling [5] | efficacy in Rheumatoid Arthritis trial [6] | inhibition of Acute Myelogenous Leukemia Blast Proliferation [7]
1 | C=CCN(Cc1ccc(Cl)cc1Cl)C(=O)CCl [Example 1] | ≥ 6.00 | > 5.00 | – | – | – | – | –
2 | IL-1 ra: naturally occurring IL-1β receptor antagonist | – | – | inhibit colony growth | reduced tissue necrosis and the number of inflammatory cells in the colon | supresses joint swelling | shows efficacy | Inhibition of Acute Myelogenous Leukemia Blast Proliferation

Reference: US5834514A, “Halomethyl amides as IL-1β protease inhibitors” (Vertex Pharmaceuticals, Incorporated, priority 1996, dated 1998)
